The text below walks through data of patent publication US5075337A, “Alpha-deuterated 2-alkylaminoacetamide derivatives having reduced toxicity for treatment of CNS disorders” (G. D. Searle & Co., priority 1989, dated 1991).

The test system of data set [1] is convulsions induced by bicuculline (BIC). Put plainly: Prevention of chemically induced convulsions (bicuculline). In kind it is in vivo, mouse (male Swiss albino). As to conditions: 30 mg/kg oral; bicuculline 0.6 mg/kg intravenously; 4 groups of 5 mice. The method, then:
(§1) The anticonvulsive effect of a compound of the invention was examined for clonic, tonic convulsions and death induced by different convulsant agents, namely, 3-mercaptopropionic acid (3-MPA 120 mg/kg subcutaneously) and bicuculline (BIC, 0.6 mg/kg intravenously), (W. van Dorsser, D. Barris, A. Cordi and J. Roba; Arch. Int. Pharmacodyn., 266: 239-249 (1983)). The compounds of the invention were administered orally at dosage of either 100 mg/kg (3-MPA) or 30 mg/kg (BIc) in a volume of 10 ml/kg, each to 5 mice, 30 minutes or 2 hours before convulsions were induced. Test mice used were male Swiss albino mice weighing 22-33 g, CDl, charles River, France, housed in group of 10 on a 12 hours light-dark cycle for at least 1 week before use, and fasted overnight. The number of mice protected against tonic convulsions and the number of dead mice were noted. The results are given as a score which represents the total number of mice protected by a dose of 100 mg/kg for two groups of 5 animals (3-MPA) or the percentage of mice protected by a dose of 30 mg/kg in 4 groups of 5 animals (BIC).

Data set [2] in a line: Comparative pharmacokinetic study, 1:1 mixture of milacemide and ^2 H-milacemide. In kind it is in vivo, cynomolgus monkey (Macaca fascicularis). As to conditions: for ^2 H-milacemide/milacemide ratio, plasma AUC / ^2 H-milacemide/milacemide ratio, urine 24 hours excretion: 1:1 mixture. The method, then:
A comparative pharmacokinetic study was conducted in the cynomolgus monkey (Macaca fascicularis) with a 1:1 mixture of milacemide and ^2 H-milacemide administered to 4 males and 4 females used in this study. One animal of each sex received the mixture either by the i.v. route at the dose of 30 mg/kg, or by the intragastric route at the dose of 30 mg/kg or 100 mg/kg, or 300 mg/kg. Plasma samples were drawn from the males and 0-24 hours urine samples were collected by the females. Preliminary determinations of milacemide in the urine samples were made by HPLC. […] The aqueous solution was made alkaline by the addition of 0.3 mL of 0 5M borate buffer at pH 9.3. Derivatization occurs by addition of 0.3 mL of a solution of fluorescamine in acetone (75 g/L), then 10 to 20 pL aliquots were injected on a 5 Bondapak C18 column eluted by a mixture of tetrahydrofuran, water and 0.5M borate buffer (2/6/2) adjusted to pH 8 by the addition of hydrochloric acid. […] Analysis of the ratio of unchanged deutero milacemide versus milacemide, was performed by GC-MS Milacemide and ^2 H-milacemide extracted from plasma aliquots were transformed into their respective N-trifluoroacetylated nitrile by reaction with trifluoroacetic anhydride. After separation from the impurities, on a 3% OV 17 column, the mass spectra were obtained in the chemical ionization mode by ammonia on a Riber 10-10 B mass spectrometer. […] Quantification was performed using selected ion monitoring (SIM) on the base peaks mentioned.

Data set [3] relates to convulsions induced by 3-mercaptopropionic acid (3-MPA). The data set can be described thus: Prevention of chemically induced convulsions (3-MPA). In kind it is in vivo, mouse (male Swiss albino). The note with it: 100 mg/kg oral; 3-MPA 120 mg/kg subcutaneously; two groups of 5 mice. The method, then:
as §1

For data set [4], the target named is T1, monoamine oxidase enzyme (MAO-B) (Rattus norvegicus, UniProt P19643).
T1 construct: 14C-beta-phenylethylamine substrate
T1 sequence (P19643 1-520): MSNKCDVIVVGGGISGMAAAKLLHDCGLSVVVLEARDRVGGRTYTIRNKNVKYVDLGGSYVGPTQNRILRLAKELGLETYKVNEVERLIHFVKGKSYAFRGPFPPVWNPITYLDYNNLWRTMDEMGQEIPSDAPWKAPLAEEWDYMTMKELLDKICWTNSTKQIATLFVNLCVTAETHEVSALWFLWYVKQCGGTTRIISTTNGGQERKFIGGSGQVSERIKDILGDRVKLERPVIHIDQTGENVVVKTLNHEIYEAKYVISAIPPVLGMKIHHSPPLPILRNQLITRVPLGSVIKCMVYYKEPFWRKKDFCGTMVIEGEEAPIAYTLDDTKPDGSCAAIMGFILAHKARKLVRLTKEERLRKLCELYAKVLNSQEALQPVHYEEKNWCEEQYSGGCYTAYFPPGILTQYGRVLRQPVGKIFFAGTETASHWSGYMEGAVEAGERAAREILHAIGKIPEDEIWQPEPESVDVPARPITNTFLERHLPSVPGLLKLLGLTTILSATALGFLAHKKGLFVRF
Put plainly: MAO-B enzyme inhibition assay (rat brain mitochondria, preincubation with inhibitor). The format is biochemical, rat (Sprague Dawley). As for the experimental part:
Rat brain mitochondria were purified by a modification of the method of Dodd (Dodd Sprague Dawley rats of about 200 gr were decapitated and the brain was rapidly removed from the skull. Brains were homogenized with a glass-Teflon homogenizer in ice cold 0.32M sucrose (1/10, w/v). The homogenate was centrifuged at 2,400 g for 10 min at 4° C. The supernatant was centrifuged at 3,000 g for 10 min at 4° C. This last supernatant (8 ml) was poured into at tube containing 4 ml of 1.2M sucrose. The mitochondrial fraction is obtained after a centrifugation at 115,000 g for 30 min at 4° C. The mitochondrial pellet was suspended in 4 ml of 50 mM Na phosphate buffer and stored as aliquots at -30° C. […] Aliquots of the mitochondrial fraction were preincubated with ^2 H-milacemide or milacemide (200 μM in 50 mM Na phosphate buffer pH8) for different time periods, the samples were diluted with the incubation buffer, centrifuged and the pelleis were then used for the MAO assay. The enzymatic assay was performed in Eppendorf micro tubes (1.5 ml). The 100 μl total incubation volume contained 40 μl of 7 mM ^14 C-β-phenylethylamine, 20 μl of 50 mM Na phosphate buffer pH 8 and 40 μl of the pre-incubated mitochondrial fraction (0.2 mg protein/ml). The closed micro tubes were immediately shaken using a vortex and incubated during 4 min at 37° C. The reaclion was stopped by adding 20 μl of 1.5 N Hcl into the tube placed in an ice bath. The deaminated products were extracted with 600 μl of a toluene-ethyl acetate mixture (water saturated) and strongly mixed during 30 sec. The two layers were separated by centrifugation (10.000 g) for 10 min. Then, 400μL of the organic layer were added to 4 ml of lumagel in a scintillation counting vial. Blank values are obtained by incubating the mitochondrial fraction with Hcl 1.5M.

The conditions of data set [5]: in words; literature; cited from earlier work.
Data set [6] has as its system MAO-B enzyme. As to conditions: in words; literature; cited from earlier work.
Setting [7] is: compared with milacemide, in words.
[8] abbreviates: 200 μM, preincubation, pH 8, rat brain mitochondria, 50% inhibition.

The structures appear in SMILES notation.

As to `[2H]C([2H])(CCCC)NCC(N)=O` [^2 H-milacemide, 2-(1,1-dideuteropentylamino)acetamide], the “BIC (% Protected)” value in data set [1] stood at 45%. Moreover, in data set [2] (30 mg/kg i.g.), the “^2 H-milacemide/milacemide ratio, plasma AUC” value was 14.6 and the “^2 H-milacemide/milacemide ratio, urine 24 hours excretion” value was 7.4. Besides, in data set [2] (30 mg/kg i.v.), the “^2 H-milacemide/milacemide ratio, plasma AUC” value turned out to be 2.6 and the “^2 H-milacemide/milacemide ratio, urine 24 hours excretion” value was found to be 3.1. Besides, in data set [2] (100 mg/kg i.g.), the “^2 H-milacemide/milacemide ratio, plasma AUC” value came to 9.2 and the “^2 H-milacemide/milacemide ratio, urine 24 hours excretion” value is given as 5.2. For the same molecule, in data set [2] (300 mg/kg i.g.), the “^2 H-milacemide/milacemide ratio, plasma AUC” value was 7.1 and the “^2 H-milacemide/milacemide ratio, urine 24 hours excretion” value is reported as 3.7. In data set [2] (setting [7]), the first pass effect entry was “reduced first pass effect”, the half-life result is given as “prolonged” and the metabolic clearance entry is on record as “decreased metabolic clearance”. For the same molecule, in data set [3], the “3-MPA (% Protected)” value is recorded as 10%. In addition, in data set [4] (setting [8]), the “time to reach the same level of inhibition (50%) of MAO-B” value was “at least 3 hours”. For the same molecule, the “fold more time needed to reach the same level (50%) of MAO-B inhibition, ^2 H-milacemide vs milacemide” value in data set [4] (^2 H-milacemide relative to milacemide) was found to be 6 fold.

On to `CCCCCNCC(N)=O` [milacemide, 2-n-pentylaminoacetamide, reference compound], for which the “BIC (% Protected)” value in data set [1] is listed as 65%. For the same molecule, the brain bioavailability entry in data set [5] was “limited brain bioavailability”. Further, in data set [3], the “3-MPA (% Protected)” value was determined as 20%. Besides, in data set [6], the “metabolism in the peripheral system by the MAO-B enzyme” value was “metabolized in the peripheral system by the MAO-B enzyme”. Also, the “time to inhibit MAO-B activity by 50%” value in data set [4] (setting [8]) is 30 min.

`NNCCc1ccccc1` [phenelzine]: in data set [5], the brain bioavailability result was “limiting its brain bioavailability”. Moreover, the “metabolism in the peripheral system by the MAO-B enzyme” value in data set [6] is “metabolized in the peripheral system by the MAO-B enzyme”.
